Here are results for 13 compounds from patent publication US7772227B2, “Tricyclic 1-[(indol-3-yl)carbonyl]piperazine derivatives as cannabinoid CB1 receptor agonists” (N.V. Organon, priority 2003, dated 2010).

Structures can show the parent of a compound that is named as a salt. Where two headings read alike, the source gives them in different places. Some results are limits rather than exact numbers.

The term ED50 denotes the midpoint of the dose-response relation. Broadly, the pEC50 is −log10 of the EC50, conventionally taken in molar units.

The target in one experiment is T1, human CB1 receptor (Homo sapiens, UniProt P21554).
T1 construct: expressed in transfected cells; host or cells: Chinese Hamster Ovary (CHO) cells
The experiment in a line: Efficacy and potency at the human CB1 receptor expressed in CHO cells (luciferase reporter gene). The class given is cell-based. As to conditions: 5 h incubation at 37° C. The protocol:
Methods to determine receptor binding as well as in vitro biological activity of cannabinoid receptor modulators are well known in the art. In general, expressed receptor is contacted with the compound to be tested and binding or stimulation or inhibition of a functional response is measured.
Chinese Hamster Ovary (CHO) cells expressing the human CB1 receptor and a luciferase reporter gene were suspended in phenol red/serum free DMEM/F-12 nut mix containing penicillin/streptomycin (50 U/50 μg/ml) and fungizone (1 μg/ml) and seeded into 96 well plates at a density of 3×10^4 cells per well (100 μl final volume). Cells were incubated overnight (approx. 18 h at 37° C., 5% CO2/95% air) prior to assay.
The test compound (10 mM solution in dimethylsulfoxide) was diluted in F12 Nut Mix to give a range of stock solutions from 0.11 mM to 0.11 nM. The stock solutions (10 μl) were added directly to the relevant wells. The plates were incubated at 37° C. for 5 h to allow agonist-induced expression of the luciferase enzyme. Under subdued light, LucLite substrate (Packard; reconstituted as per manufacturer's instructions; 100 μl) was added to each well. Plates were covered with Top Seal and then incubated at room temperature for 5 minutes before counting on the Packard TopCount (single photon counting, 0.01 minute count time, 5 minute count delay).
A “best-fit” curve was fitted by a minimum sum of squares method to the plot of counts per second (CPS) against compound concentration (M) to obtain an EC50 value.
In general terms: Reporter assays use an easily measured gene product as a stand-in for the process of interest.

In a further experiment the test system is mice. The experiment in a line: Tail flick latency in mice. The class given is in vivo. The conditions noted are these: Mus musculus, iv, administered intravenously, ED50 calculated at Tmax, read-out: ED50 (increase of tail flick latency). The protocol: Mice were trained to sit still in a tail flick apparatus (Ugo Basile, Italy) whilst tail flick latency was measured. The tail was exposed to a focused beam of radiant heat at a point approximately 2.5 cm from the tip. Tail flick latency was defined as the interval between the appliance of the thermal stimulus and withdrawal of the tail. A 12 second cut-off was employed to prevent tissue damage. Four groups of eight mice were treated with vehicle or one of three doses of the test compound, administered intravenously (vehicle: saline 9 g/l; injection volume 10 ml/kg). Tail flick latency was measured before administration of the test compound and at regular intervals (typically 20, 40 and 60 minutes) after compound administration. The ED50 was calculated at Tmax.

The mark [1] stands for this setting: CHO cells expressing human CB1 receptor and luciferase reporter gene, read-out: pEC50 (converted).
The mark [2] stands for this setting: CHO cells expressing human CB1 receptor and luciferase reporter gene.

T1 sequence (P21554 whole entry): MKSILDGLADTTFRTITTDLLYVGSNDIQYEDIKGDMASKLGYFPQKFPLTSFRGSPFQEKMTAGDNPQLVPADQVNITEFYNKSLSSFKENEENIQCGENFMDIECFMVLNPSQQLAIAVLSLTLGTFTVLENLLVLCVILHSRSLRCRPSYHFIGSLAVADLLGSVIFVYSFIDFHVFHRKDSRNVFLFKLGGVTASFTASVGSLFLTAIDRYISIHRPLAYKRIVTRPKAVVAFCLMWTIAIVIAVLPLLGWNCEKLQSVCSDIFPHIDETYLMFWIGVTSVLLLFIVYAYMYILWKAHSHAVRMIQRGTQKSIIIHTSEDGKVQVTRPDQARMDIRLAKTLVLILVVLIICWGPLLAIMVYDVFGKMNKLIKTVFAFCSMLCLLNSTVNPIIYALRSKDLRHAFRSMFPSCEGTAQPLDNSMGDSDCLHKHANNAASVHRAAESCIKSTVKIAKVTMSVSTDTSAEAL

For `CCN1CCN(C(=O)c2cn3c4c(cccc24)CCC3C2CCCCC2)CC1` (single isomer, unassigned; (+)) [Example 13, (+)-4-Cyclohexyl-5,6-dihydro-1-(4-ethylpiperazin-1-ylcarbonyl)-4H-pyrrolo[3,2,1-ij]-quinoline hydrochloride salt], the EC50 at human CB1 receptor (setting [1]) was 50.1 nM.
As for `CN1CCN(C(=O)c2cn3c4c(cccc24)CCC3C2CCCCC2)CC1` (single isomer, unassigned; (+)) [Example 14, (+)-(4-Cyclohexyl-5,6-dihydro-1-(4-methylpiperazin-1-ylcarbonyl)-4H-pyrrolo[3,2,1-ij]-quinoline hydrochloride salt], in the experiment with mice, the ED50 is less than 5 µmol/kg. Besides, the EC50 on human CB1 receptor (setting [1]) was 79.4 nM.
Regarding `CCN1CCN(C(=O)c2cn3c4c(cccc24)CCC3C2CCCC2)CC1` (single isomer, unassigned; (-)) [Example 12B, (−)-4-Cylclopentyl-5,6-dihydro-1-(4-ethylpiperazin-1-ylcarbonyl)-4H-pyrrolo[3,2,1-ij]quinoline hydrochloride salt], the EC50 at human CB1 receptor (setting [1]) is 39.8 nM.
`CCN1CCN(C(=O)c2cn3c4c(cccc24)CCC3C2CCCCC2)CC1` (single isomer, unassigned; (-)) [Example 15, (−)-(4-Cyclohexyl-5,6-dihydro-1-(4-ethylpiperazin-1-ylcarbonyl)-4H-pyrrolo[3,2,1-ij]quinoline hydrochloride salt]: the ED50 with mice is less than 5 µmol/kg. Besides, the EC50 on human CB1 receptor (setting [1]) is 31.6 nM.
For `CN1CCN(C(=O)c2cn3c4c(cccc24)CCC3C2CCCCC2)CC1` (single isomer, unassigned; (-)) [Example 16, (−)-(4-Cyclohexyl-5,6-dihydro-1-(4-methylpiperazin-1-ylcarbonyl)-4H-pyrrolo[3,2,1-ij]-quinoline hydrochloride salt], at human CB1 receptor (setting [1]), the EC50 is 25.1 nM.
In the case of `CCN1CCN(C(=O)c2cn3c4c(cccc24)OC[C@H]3C2CCCCC2)CC1.Cl` [Example 1, (R)-3-Cyclohexyl-2,3-dihydro-6-(4-ethylpiperazin-1-ylcarbonyl)pyrrolo[1,2,3-de]-1,4-benzoxazine hydrochloride salt], at human CB1 receptor (setting [2]), the pEC50 was 7.5.
Turning to `O=C(c1cn2c3c(cccc13)OC[C@H]2C1CCCCC1)N1CCN2CCCC[C@H]2C1` [Example 2, (R)-3-Cyclohexyl-2,3-dihydro-6-[(S)-octahydro-2H-pyrido[1,2-a]pyrazin-2-ylcarbonyl]-pyrrolo[1,2,3-de]-1,4-benzoxazine hydrochloride salt], the ED50 in the experiment on mice was less than 5 µmol/kg. This compound also showed an EC50 on human CB1 receptor (pEC50, CHO cells expressing human CB1 receptor and luciferase reporter gene) of 10 nM.
Regarding `C[C@H]1CN(C(=O)c2cn3c4c(cccc24)OC[C@H]3C2CCCCC2)CCN1C.Cl` [Example 4, (R)-3-Cyclohexyl-2,3-dihydro-6-[(S)-3,4-dimethylpiperazin-1-ylcarbonyl]pyrrolo[1,2,3-de]-1,4-benzoxazine hydrochloride salt], the ED50 with mice was less than 5 µmol/kg. Further, the pEC50 at human CB1 receptor (setting [2]) stood at 7.8.
On to `CN1CCN(C(=O)c2cn3c4c(cccc24)OC[C@H]3C2CCCCC2)CC1.Cl` [Example 5C, (R)-3-Cyclohexyl-2,3-dihydro-6-[4-methylpirerazin-1-ylcarbonyl]pyrrolo[1,2,3-de]-1,4-benzoxazine hydrochloride salt], for which the pEC50 at human CB1 receptor (setting [2]) came out at 7.0.
The same measure, in the same setting: the value for `C[C@@H]1CN(C(=O)c2cn3c4c(cccc24)OC[C@H]3C2CCCCC2)C[C@H](C)N1C.Cl` [Example 7, (R)-3-Cyclohexyl-2,3-dihydro-6-[(cis)-3,4,5-trimethylpiperazin-1-ylcarbonyl]pyrrolo[1,2,3-de]-1,4-benzoxazine hydrochloride salt] was 8.2.
Compound `CCN1[C@H](C)CN(C(=O)c2cn3c4c(cccc24)OC[C@H]3C2CCCCC2)C[C@@H]1C.Cl` [Example 8, (R)-3-Cyclohexyl-2,3-dihydro-6-[(cis)-3,5-dimethyl-4-ethylpiperazin-1-ylcarbonyl]-pyrrolo[1,2,3-de]-1,4-benzoxazine hydrochloride salt] came in with a pEC50 at human CB1 receptor (setting [2]) of 8.4.
With `C[C@@H]1CN(C(=O)c2cn3c4c(cccc24)OC[C@H]3C2CCCCC2)C[C@H](C)N1CCO.Cl` [Example 9, (R)-3-Cyclohexyl-2,3-dihydro-6-[(cis)-3,5-dimethyl-4-(2-hydroxyethyl)piperazin-1-ylcarbonyl]pyrrolo[1,2,3-de]-1,4-benzoxazine hydrochloride salt], the pEC50 on human CB1 receptor (setting [2]) is 8.2.
`COCCN1[C@H](C)CN(C(=O)c2cn3c4c(cccc24)OC[C@H]3C2CCCCC2)C[C@@H]1C.Cl` [Example 10, (R)-3-Cyclohexyl-2,3-dihydro-6-[(cis)-3,5-dimethyl-4-(2-methoxyethyl)piperazin-1-yl-carbonyl]pyrrolo[1,2,3-de]-1,4-benzoxazine hydrochloride salt] yielded a pEC50 at human CB1 receptor (setting [2]) of 8.3.
